The target of data set [1] is T1, UDP-glucuronosyltransferase 2B7 (Homo sapiens, UniProt P16662).
T1 sequence (P16662 whole entry): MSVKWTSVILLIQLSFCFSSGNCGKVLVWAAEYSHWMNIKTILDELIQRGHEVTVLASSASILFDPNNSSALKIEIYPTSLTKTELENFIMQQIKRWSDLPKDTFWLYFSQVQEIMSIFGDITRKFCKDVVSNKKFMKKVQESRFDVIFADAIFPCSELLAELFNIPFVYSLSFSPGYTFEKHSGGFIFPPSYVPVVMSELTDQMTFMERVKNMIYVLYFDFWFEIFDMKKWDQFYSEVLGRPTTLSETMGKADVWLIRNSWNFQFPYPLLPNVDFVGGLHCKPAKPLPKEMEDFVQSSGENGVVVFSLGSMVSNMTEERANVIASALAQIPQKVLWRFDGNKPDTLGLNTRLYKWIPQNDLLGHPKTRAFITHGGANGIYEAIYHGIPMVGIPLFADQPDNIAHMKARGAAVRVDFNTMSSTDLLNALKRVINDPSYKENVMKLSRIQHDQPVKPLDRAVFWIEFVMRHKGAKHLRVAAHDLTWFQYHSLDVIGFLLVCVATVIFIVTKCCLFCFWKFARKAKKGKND
Briefly: Uncompetitive substrate inhibition of UGT2B7 in non-diabetic human kidney microsomes assessed as reduction in enzyme-mediated mycophenolic acid acyl glucuronide formation by HPLC and LC-MS/MS method. It counts as ADME.

In data set [2] the target is T1, UDP-glucuronosyltransferase 2B7. Briefly: Uncompetitive substrate inhibition of UGT2B7 in diabetic human kidney microsomes assessed as reduction in enzyme-mediated mycophenolic acid phenolic 7-O-glucuronide formation by HPLC and LC-MS/MS method. It counts as ADME.
The target is the same in data set [3]. Briefly: Drug metabolism in diabetic human kidney microsomes assessed as UGT2B7-mediated mycophenolic acid phenolic 7-O-glucuronide formation per pmol protein by HPLC and LC-MS/MS method. The data set is classed as ADME.
For data set [4] the target is unchanged. Briefly: Ratio of Vmax to Km in diabetic human kidney microsomes assessed as UGT2B7-mediated mycophenolic acid phenolic 7-O-glucuronide formation per pmol protein by HPLC and LC-MS/MS method. It counts as ADME.
Data set [5] shares this target. Briefly: Ratio of Vmax to Km in non-diabetic human liver microsomes assessed as UGT2B7-mediated mycophenolic acid acyl glucuronide formation per pmol protein by HPLC and LC-MS/MS method. The data set is classed as ADME.
Data set [6] has the same target. Briefly: Drug metabolism in diabetic human kidney microsomes assessed as UGT2B7-mediated mycophenolic acid acyl glucuronide formation per pmol protein by HPLC and LC-MS/MS method. The data set is classed as ADME.
Data set [7] shares this target. Briefly: Drug metabolism in diabetic human liver microsomes assessed as UGT2B7-mediated mycophenolic acid acyl glucuronide formation per pmol protein by HPLC and LC-MS/MS method. The data set is classed as ADME.
Data set [8] has the same target. Briefly: Uncompetitive substrate inhibition of UGT2B7 in non-diabetic human kidney microsomes assessed as reduction in enzyme-mediated mycophenolic acid phenolic 7-O-glucuronide formation by HPLC and LC-MS/MS method. It counts as ADME.
The target is the same in data set [9]. Briefly: Drug metabolism in non-diabetic human liver microsomes assessed as UGT2B7-mediated mycophenolic acid acyl glucuronide formation per pmol protein by HPLC and LC-MS/MS method. It counts as ADME.
The target is the same in data set [10]. Briefly: Ratio of Vmax to Km in diabetic human liver microsomes assessed as UGT2B7-mediated mycophenolic acid phenolic 7-O-glucuronide formation per pmol protein by HPLC and LC-MS/MS method. It counts as ADME.
For data set [11] the target is unchanged. Briefly: Ratio of Vmax to Km in non-diabetic human kidney microsomes assessed as UGT2B7-mediated mycophenolic acid acyl glucuronide formation per pmol protein by HPLC and LC-MS/MS method. The data set is classed as ADME.
Data set [12] shares this target. Briefly: Ratio of Vmax to Km in non-diabetic human kidney microsomes assessed as UGT2B7-mediated mycophenolic acid phenolic 7-O-glucuronide formation per pmol protein by HPLC and LC-MS/MS method. The data set is classed as ADME.
For data set [13] the target is unchanged. Briefly: Ratio of Vmax to Km in non-diabetic human liver microsomes assessed as UGT2B7-mediated mycophenolic acid phenolic 7-O-glucuronide formation per pmol protein by HPLC and LC-MS/MS method. The data set is classed as ADME.
The target is the same in data set [14]. Briefly: Drug metabolism in diabetic human liver microsomes assessed as UGT2B7-mediated mycophenolic acid phenolic 7-O-glucuronide formation per pmol protein by HPLC and LC-MS/MS method. It counts as ADME.
Data set [15] shares this target. Briefly: Drug metabolism in non-diabetic human kidney microsomes assessed as UGT2B7-mediated mycophenolic acid phenolic 7-O-glucuronide formation per pmol protein by HPLC and LC-MS/MS method. The data set is classed as ADME.
For data set [16] the target is unchanged. Briefly: Uncompetitive substrate inhibition of UGT2B7 in diabetic human kidney microsomes assessed as reduction in enzyme-mediated mycophenolic acid acyl glucuronide formation by HPLC and LC-MS/MS method. The data set is classed as ADME.
For data set [17] the target is unchanged. Briefly: Uncompetitive substrate inhibition of UGT2B7 in diabetic human liver microsomes assessed as reduction in enzyme-mediated mycophenolic acid acyl glucuronide formation by HPLC and LC-MS/MS method. The data set is classed as ADME.
The target is the same in data set [18]. Briefly: Uncompetitive substrate inhibition of UGT2B7 in non-diabetic human liver microsomes assessed as reduction in enzyme-mediated mycophenolic acid acyl glucuronide formation by HPLC and LC-MS/MS method. The data set is classed as ADME.
Data set [19] shares this target. Briefly: Drug metabolism in non-diabetic human liver microsomes assessed as UGT2B7-mediated mycophenolic acid phenolic 7-O-glucuronide formation per pmol protein by HPLC and LC-MS/MS method. The data set is classed as ADME.
For data set [20] the target is unchanged. Briefly: Ratio of Vmax to Km in diabetic human kidney microsomes assessed as UGT2B7-mediated mycophenolic acid acyl glucuronide formation per pmol protein by HPLC and LC-MS/MS method. It counts as ADME.
For data set [21] the target is unchanged. Briefly: Ratio of Vmax to Km in diabetic human liver microsomes assessed as UGT2B7-mediated mycophenolic acid acyl glucuronide formation per pmol protein by HPLC and LC-MS/MS method. It counts as ADME.
Data set [22] has the same target. Briefly: Uncompetitive substrate inhibition of UGT2B7 in non-diabetic human liver microsomes assessed as reduction in enzyme-mediated mycophenolic acid phenolic 7-O-glucuronide formation by HPLC and LC-MS/MS method. It counts as ADME.
Data set [23] shares this target. Briefly: Uncompetitive substrate inhibition of UGT2B7 in diabetic human liver microsomes assessed as reduction in enzyme-mediated mycophenolic acid phenolic 7-O-glucuronide formation by HPLC and LC-MS/MS method. The data set is classed as ADME.
For data set [24] the target is unchanged. Briefly: Drug metabolism in non-diabetic human liver microsomes assessed as UGT2B7-mediated zidovudine glucuronide formation per pmol protein by HPLC and LC-MS/MS method. The data set is classed as ADME.
Data set [25] has the same target. Conditions: microsomes.
Data set [26] has the same target. Briefly: Drug metabolism in diabetic human kidney microsomes assessed as UGT2B7-mediated zidovudine glucuronide formation per pmol protein by HPLC and LC-MS/MS method. It counts as ADME.
The target is the same in data set [27]. Briefly: Drug metabolism in diabetic human liver microsomes assessed as UGT2B7-mediated zidovudine glucuronide formation per pmol protein by HPLC and LC-MS/MS method. The data set is classed as ADME.
The target is the same in data set [28]. Briefly: Drug metabolism in non-diabetic human kidney microsomes assessed as UGT2B7-mediated zidovudine glucuronide formation per pmol protein by HPLC and LC-MS/MS method. It counts as ADME.
The target is the same in data set [29]. Conditions: microsomes. This is another data set of the same source.
The target is the same in data set [30]. Conditions: microsomes. This is another data set of the same source.
Data set [31] has the same target. Briefly: Ratio of Vmax to Km in diabetic human liver microsomes assessed as UGT2B7-mediated zidovudine glucuronide formation per pmol protein by HPLC and LC-MS/MS method. The data set is classed as ADME. Conditions: […].
The target is the same in data set [32]. Conditions: microsomes. The source holds these as a separate data set.
Substrate in data set [33]: COc1c(C)c2c(c(O)c1C/C=C(\C)CCC(=O)O)C(=O)OC2
Briefly: Drug metabolism in non-diabetic human kidney microsomes assessed as UGT2B7-mediated mycophenolic acid phenolic 7-O-glucuronide formation by HPLC and LC-MS/MS method. The data set is classed as ADME.

Substrate in data set [34]: COc1c(C)c2c(c(O)c1C/C=C(\C)CCC(=O)O)C(=O)OC2
Briefly: Drug metabolism in non-diabetic human liver microsomes assessed as UGT2B7-mediated mycophenolic acid acyl glucuronide formation by HPLC and LC-MS/MS method. It counts as ADME.

Substrate in data set [35]: COc1c(C)c2c(c(O)c1C/C=C(\C)CCC(=O)O)C(=O)OC2
Briefly: Drug metabolism in non-diabetic human liver microsomes assessed as UGT2B7-mediated mycophenolic acid phenolic 7-O-glucuronide formation by HPLC and LC-MS/MS method. The data set is classed as ADME.

Substrate in data set [36]: COc1c(C)c2c(c(O)c1C/C=C(\C)CCC(=O)O)C(=O)OC2
Briefly: Drug metabolism in diabetic human kidney microsomes assessed as UGT2B7-mediated mycophenolic acid acyl glucuronide formation by HPLC and LC-MS/MS method. The data set is classed as ADME.

Substrate in data set [37]: COc1c(C)c2c(c(O)c1C/C=C(\C)CCC(=O)O)C(=O)OC2
Briefly: Drug metabolism in non-diabetic human kidney microsomes assessed as UGT2B7-mediated mycophenolic acid acyl glucuronide formation by HPLC and LC-MS/MS method. The data set is classed as ADME.

Substrate in data set [38]: COc1c(C)c2c(c(O)c1C/C=C(\C)CCC(=O)O)C(=O)OC2
Briefly: Drug metabolism in diabetic human kidney microsomes assessed as UGT2B7-mediated mycophenolic acid phenolic 7-O-glucuronide formation by HPLC and LC-MS/MS method. The data set is classed as ADME.

Substrate in data set [39]: COc1c(C)c2c(c(O)c1C/C=C(\C)CCC(=O)O)C(=O)OC2
Briefly: Drug metabolism in diabetic human liver microsomes assessed as UGT2B7-mediated mycophenolic acid acyl glucuronide formation by HPLC and LC-MS/MS method. It counts as ADME.

Substrate in data set [40]: COc1c(C)c2c(c(O)c1C/C=C(\C)CCC(=O)O)C(=O)OC2
Briefly: Drug metabolism in diabetic human liver microsomes assessed as UGT2B7-mediated mycophenolic acid phenolic 7-O-glucuronide formation by HPLC and LC-MS/MS method. The data set is classed as ADME.

Experimental findings from ChEMBL document CHEMBL3526023 (Drug Metab Dispos, 2011) are described below.

As for `COc1c(C)c2c(c(O)c1C/C=C(\C)CCC(=O)O)C(=O)OC2` [MYCOPHENOLIC ACID], the Ki in data set [1] came to 2000 nM; in [2] it was 1500 nM; in data set [8], 1500 nM; in data set [16], 2000 nM; in data set [17] it was 2000 nM; in [18] it was 2000 nM. For the same molecule, the Ki in [22] and in data set [23] was 1500 nM each time. For the same molecule, the maximum rate (Vmax) in data set [3] amounted to 38.8 pmol/min; in data set [6], 0.43 pmol/min; in [7], 0.76 pmol/min; in data set [9], 2.43 pmol/min; in [14], 15.7 pmol/min; in [15], 26.4 pmol/min. For the same molecule, the Vmax in data set [19] is listed as 10.6 pmol/min. The Vmax/Km came to 34.1 nL/min in [4]; 4.08 nL/min in data set [5]; 31.3 nL/min in data set [10]; 0.41 nL/min in data set [11]; 27.6 nL/min in [12]; 22.9 nL/min in [13]. Besides, the Vmax/Km in data set [20] is 0.12 nL/min; in data set [21], 1.51 nL/min.

As to `Cc1cn([C@H]2C[C@H](N=[N+]=[N-])[C@@H](CO)O2)c(=O)[nH]c1=O` [ZIDOVUDINE], the Vmax in data set [24] is listed as 1214 pmol/min; in data set [26], 6.52 pmol/min; in data set [27], 274 pmol/min; in data set [28] it was 20.5 pmol/min. Besides, the Km in [25] is 307 µM; in data set [29] it was 330 µM; in data set [30] it was 519 µM; in [32], 519 µM. In addition, the Vmax/Km in data set [31] is 0.87 nL/min.

B1: UDP-glucuronosyltransferase 2B7 (Homo sapiens) (protein)
chain: MSVKWTSVILLIQLSFCFSSGNCGKVLVWAAEYSHWMNIKTILDELIQRGHEVTVLASSASILFDPNNSSALKIEIYPTSLTKTELENFIMQQIKRWSDLPKDTFWLYFSQVQEIMSIFGDITRKFCKDVVSNKKFMKKVQESRFDVIFADAIFPCSELLAELFNIPFVYSLSFSPGYTFEKHSGGFIFPPSYVPVVMSELTDQMTFMERVKNMIYVLYFDFWFEIFDMKKWDQFYSEVLGRPTTLSETMGKADVWLIRNSWNFQFPYPLLPNVDFVGGLHCKPAKPLPKEMEDFVQSSGENGVVVFSLGSMVSNMTEERANVIASALAQIPQKVLWRFDGNKPDTLGLNTRLYKWIPQNDLLGHPKTRAFITHGGANGIYEAIYHGIPMVGIPLFADQPDNIAHMKARGAAVRVDFNTMSSTDLLNALKRVINDPSYKENVMKLSRIQHDQPVKPLDRAVFWIEFVMRHKGAKHLRVAAHDLTWFQYHSLDVIGFLLVCVATVIFIVTKCCLFCFWKFARKAKKGKND
B1: the Km in data set [33] turned out to be 1010 µM; in data set [34], 601 µM; in data set [35], 454 µM; in data set [36], 3430 µM; in data set [37], 3010 µM; in data set [38] it was 1160 µM. In addition, the Michaelis constant (Km) in [39] was determined as 502 µM; in data set [40] it was 482 µM.
